From patent publication US20100209345A1, “Fluorinated Ligands for Targeting Peripheral Benzodiazepine Receptors” (Australian Nuclear Science & Technology Organisation, priority 2006, published 2010)
Values belong to the compound of their own block, whether it stands above or below them.

What was measured:
[1] = Biodistribution of 18F-labelled tracers in rats; type: in vivo
Procedure: [^18F]Fluoride, in the form of H^18F, was produced by the ^18O(p,n)^18F nuclear reaction by bombardment of ^18O-enriched water target. The aqueous [^18F]fluoride solution was added to a 2.5-mL wheaton vial containing dry acetonitrile (1 mL), Kryptofix 2.2.2 (5 mg, 13.3 μmol) and potassium carbonate (2 mg, 14.5 μmol). The solvent was evaporated under a stream of nitrogen at 90° C. with a reducing vacuum. This azeotropic drying was repeated twice by further addition of acetonitrile (2×1 mL). The tosylate precursor 2-(2-(4-(2-tosylethoxy)phenyl)-6-chloroimidazo[1,2-a]pyridin-3-yl)-N,N-diethylacetamide (2 mg, 3.6 μmol) was dissolved in acetonitrile (1 ml) and added to the dried K222.K2CO3.KF complex. Stirring and heating at 90° C. continued for 10 to 15 mins before the reaction mixture was diluted with mobile phase and purified by reverse phase HPLC on an Alltech Alltima, C18, 10μ, 250×22 mm column eluting at 10 mLs/min with 45% acetonitrile, 55% water with 0.1% TFA.
(§1) The biodistribution of PBR132* was undertaken in SD rats and analysis up to 4 h p.i. in the brain and peripheral tissues was performed. The specificity and selectivity of the tracer were assessed by pre-treatment with PBR and Central benzodiazepine receptor (CBR) specific ligands (1 mg/kg) 5 min prior to injection of PBR132*.
(§2) The biodistribution of PBR 147* was performed in SD rats and brain and peripheral tissues were analysised at 15, 30 min, 1, and 4 h p.i. The specificity and selectivity of the tracer was assessed by pre-treatment of the animals with the PBR ligands PK11195 and Ro 5-4864 and with Flumazenil for CBR at 1 mg/kg 5 min prior to injection of PBR 147*
(§3) The biodistribution of PBR102* and PBR111* were performed in SD rats and brain and peripheral tissues analysed at 15, 30 min, 1, and 4 h p.i. The specificity and selectivity of the tracers were assessed by pre-treatment with the PBR ligands PK11195 and Ro 5-4864 and with Flumazenil for CBR at 1 mg/kg 5 min prior to injection of the corresponding tracers.
(§4) The specificity and selectivity of the tracers were assessed by pre-treatment with the PBR ligands PK11195 and Ro 5-4864 and with Flumazenil for CBR at 1 mg/kg 5 min prior to injection of the corresponding tracers.

[2] = target: T1, peripheral benzodiazepine receptors (Rattus norvegicus, UniProt P16257); experiment: In vivo blocking / competition of tracer uptake by pre-treatment with PBR and CBR ligands; conditions: rats
T1 construct: high uptake in the tissues which have known PBR sites; from tissue; host or cells: organs of living SD rats (brain and peripheral tissues), in vivo
Procedure: The criteria for significance were **p<0.01 (highly significant) and *p<0.05 (significant). No stars implies not statistical difference from normals or controls.
as §1, §2, §3, §4

[3] = SD rats, 15 min, decay correction not stated
[4] = SD rats, 4 hours, decay correction not stated
[5] = rats, 15 min, corrected for decay of 18F
[6] = rats, 30 min, corrected for decay of 18F
[7] = rats, 60 min, corrected for decay of 18F
[8] = rats, 4 hours, corrected for decay of 18F

- Biodistribution: Blood [1, 3]: 0.4 % ID/g
- Biodistribution: Bone [1, 3]: 1.0 % ID/g
- Biodistribution: Kidney [1, 3]: 5.5 % ID/g
- Biodistribution: Olfactory bulbs [1, 3]: 0.41 % ID/g
- Biodistribution: Adrenals ([1]; SD rats, 30 min, decay correction not stated): 7.9 % ID/g
- Biodistribution: Adrenals [1, 4]: 12.2 % ID/g
- Biodistribution: Blood [1, 4]: 0.1 % ID/g
- Biodistribution: Bone [1, 4]: 5.0 % ID/g
- Biodistribution: Kidney [1, 4]: 3.2 % ID/g
- Biodistribution: Olfactory bulbs [1, 4]: 0.31 % ID/g
- Biodistribution: Adrenals [1, 5]: 8.05 ± 0.66 % ID/g
- Biodistribution: Bladder [1, 5]: 0.63 ± 0.14 % ID/g
- Biodistribution: Blood [1, 5]: 0.38 ± 0.08 % ID/g
- Biodistribution: Bone [1, 5]: 1.06 ± 0.17 % ID/g
- Biodistribution: Brain [1, 5]: 0.27 ± 0.03 % ID/g
- Biodistribution: Heart [1, 5]: 8.99 ± 0.69 % ID/g
- Biodistribution: Kidney [1, 5]: 5.53 ± 1.20 % ID/g
- Biodistribution: Liver [1, 5]: 1.08 ± 0.05 % ID/g
- Biodistribution: Lungs [1, 5]: 20.42 ± 4.32 % ID/g
- Biodistribution: Muscle [1, 5]: 1.10 ± 0.15 % ID/g
- Biodistribution: Olfactory bulbs [1, 5]: 0.41 ± 0.10 % ID/g
- Biodistribution: Pancreas [1, 5]: 2.20 ± 0.68 % ID/g
- Biodistribution: Skin [1, 5]: 0.53 ± 0.11 % ID/g
- Biodistribution: Spleen [1, 5]: 5.49 ± 0.90 % ID/g
- Biodistribution: Stomach [1, 5]: 0.69 ± 0.12 % ID/g
- Biodistribution: Testes [1, 5]: 0.269 ± 0.022 % ID/g
- Biodistribution: Thymus [1, 5]: 0.80 ± 0.07 % ID/g
- Biodistribution: Thyroid [1, 5]: 7.71 ± 2.92 % ID/g
- Biodistribution: Adrenals [1, 6]: 7.94 ± 1.52 % ID/g
- Biodistribution: Bladder [1, 6]: 0.71 ± 0.22 % ID/g
- Biodistribution: Blood [1, 6]: 0.26 ± 0.03 % ID/g
- Biodistribution: Bone [1, 6]: 1.46 ± 0.27 % ID/g
- Biodistribution: Brain [1, 6]: 0.15 ± 0.02 % ID/g
- Biodistribution: GIT [1, 6]: 1.25 ± 0.09 % ID/g
- Biodistribution: Heart [1, 6]: 9.05 ± 0.51 % ID/g
- Biodistribution: Kidney [1, 6]: 4.91 ± 0.21 % ID/g
- Biodistribution: Liver [1, 6]: 0.98 ± 0.21 % ID/g
- Biodistribution: Lungs [1, 6]: 12.36 ± 1.28 % ID/g
- Biodistribution: Muscle [1, 6]: 0.82 ± 0.13 % ID/g
- Biodistribution: Olfactory bulbs [1, 6]: 0.45 ± 0.07 % ID/g
- Biodistribution: Pancreas [1, 6]: 1.59 ± 0.10 % ID/g
- Biodistribution: Skin [1, 6]: 0.55 ± 0.05 % ID/g
- Biodistribution: Spleen [1, 6]: 5.53 ± 0.36 % ID/g
- Biodistribution: Stomach [1, 6]: 1.03 ± 0.16 % ID/g
- Biodistribution: Testes [1, 6]: 0.285 ± 0.024 % ID/g
- Biodistribution: Thymus [1, 6]: 0.84 ± 0.11 % ID/g
- Biodistribution: Thyroid [1, 6]: 7.69 ± 2.21 % ID/g
- Biodistribution: Adrenals [1, 7]: 11.02 ± 1.88 % ID/g
- Biodistribution: Bladder [1, 7]: 0.89 ± 0.25 % ID/g
- Biodistribution: Blood [1, 7]: 0.18 ± 0.02 % ID/g
- Biodistribution: Bone [1, 7]: 2.07 ± 0.27 % ID/g
- Biodistribution: Brain [1, 7]: 0.12 ± 0.01 % ID/g
- Biodistribution: GIT [1, 7]: 1.51 ± 0.21 % ID/g
- Biodistribution: Heart [1, 7]: 8.57 ± 1.01 % ID/g
- Biodistribution: Kidney [1, 7]: 4.70 ± 0.24 % ID/g
- Biodistribution: Liver [1, 7]: 0.69 ± 0.26 % ID/g
- Biodistribution: Lungs [1, 7]: 7.12 ± 0.95 % ID/g
- Biodistribution: Muscle [1, 7]: 0.67 ± 0.04 % ID/g
- Biodistribution: Olfactory bulbs [1, 7]: 0.25 ± 0.06 % ID/g
- Biodistribution: Pancreas [1, 7]: 1.41 ± 0.22 % ID/g
- Biodistribution: Skin [1, 7]: 0.67 ± 0.06 % ID/g
- Biodistribution: Spleen [1, 7]: 5.14 ± 0.38 % ID/g
- Biodistribution: Stomach [1, 7]: 1.27 ± 0.45 % ID/g
- Biodistribution: Testes [1, 7]: 0.319 ± 0.028 % ID/g
- Biodistribution: Thymus [1, 7]: 0.96 ± 0.17 % ID/g
- Biodistribution: Thyroid [1, 7]: 13.37 ± 0.46 % ID/g
- Biodistribution: Adrenals [1, 8]: 12.21 ± 1.56 % ID/g
- Biodistribution: Bladder [1, 8]: 1.26 ± 0.16 % ID/g
- Biodistribution: Blood [1, 8]: 0.10 ± 0.01 % ID/g
- Biodistribution: Bone [1, 8]: 4.12 ± 0.23 % ID/g
- Biodistribution: Brain [1, 8]: 0.08 ± 0.01 % ID/g
- Biodistribution: GIT [1, 8]: 1.54 ± 0.11 % ID/g
- Biodistribution: Heart [1, 8]: 5.76 ± 0.92 % ID/g
- Biodistribution: Kidney [1, 8]: 3.23 ± 0.26 % ID/g
- Biodistribution: Liver [1, 8]: 0.38 ± 0.09 % ID/g
- Biodistribution: Lungs [1, 8]: 3.25 ± 0.21 % ID/g
- Biodistribution: Muscle [1, 8]: 0.31 ± 0.06 % ID/g
- Biodistribution: Olfactory bulbs [1, 8]: 0.31 ± 0.08 % ID/g
- Biodistribution: Pancreas [1, 8]: 0.77 ± 0.16 % ID/g
- Biodistribution: Skin [1, 8]: 0.71 ± 0.07 % ID/g
- Biodistribution: Spleen [1, 8]: 3.61 ± 0.19 % ID/g
- Biodistribution: Stomach [1, 8]: 0.34 ± 0.04 % ID/g
- Biodistribution: Testes [1, 8]: 0.426 ± 0.043 % ID/g
- Biodistribution: Thymus [1, 8]: 1.35 ± 0.15 % ID/g
- Biodistribution: Thyroid [1, 8]: 10.68 ± 1.44 % ID/g
Structure (SMILES): CCN(CC)C(=O)Cc1c(-c2ccc(OCCCF)cc2)nn2c(C)cc(C)nc12 [PBR146*]

Structure (SMILES): CN(C(=O)Cc1c(-c2ccc(OCCC[18F])cc2)nc2c(Cl)cc(Cl)cn12)c1ccccc1 [PBR147*, 2-(2-(4-(3-fluoropropoxy)phenyl)-6,8-dichloroimidazo[1,2-a]pyridin-3-yl)-N-methyl-N-phenylacetamide]
- Tracer uptake after pre-treatment with PK 11195 ([2]; PK 11195 1 mg/kg 5 min prior to tracer, PBR-expressing tissues (brain/peripheral organs, adrenals apart)): blocking effect
- Tracer uptake after pre-treatment with Ro 5-4864 ([2]; Ro 5-4864 1 mg/kg 5 min prior to tracer, PBR-expressing tissues (brain/peripheral organs, adrenals apart)): blocking effect
- Tracer uptake after pre-treatment with flumazenil (central benzodiazepine ligand) ([2]; flumazenil 1 mg/kg 5 min prior to tracer, brain or peripheral organs): does not reduce
- Tracer uptake after pre-treatment with the non-radioactive analogue ([2]; non-radioactive analogue 1 mg/kg, PBR-expressing tissues): blocking effect
